In ChEMBL document CHEMBL1125095, “Conformational analysis and structure-activity relationships of selective dopamine D-1 receptor agonists and antagonists of the benzazepine series” (J Med Chem, 1990):
pKi: −log10 of the molar value.

How the values were obtained:
Adenylate cyclase type 5 [1] = biological target: T1, Adenylate cyclase type 5 (Homo sapiens, UniProt O95622); experiment: Effective dose required to stimulate Adenylate cyclase
Target sequence in this assay (O95622 whole entry, looked up): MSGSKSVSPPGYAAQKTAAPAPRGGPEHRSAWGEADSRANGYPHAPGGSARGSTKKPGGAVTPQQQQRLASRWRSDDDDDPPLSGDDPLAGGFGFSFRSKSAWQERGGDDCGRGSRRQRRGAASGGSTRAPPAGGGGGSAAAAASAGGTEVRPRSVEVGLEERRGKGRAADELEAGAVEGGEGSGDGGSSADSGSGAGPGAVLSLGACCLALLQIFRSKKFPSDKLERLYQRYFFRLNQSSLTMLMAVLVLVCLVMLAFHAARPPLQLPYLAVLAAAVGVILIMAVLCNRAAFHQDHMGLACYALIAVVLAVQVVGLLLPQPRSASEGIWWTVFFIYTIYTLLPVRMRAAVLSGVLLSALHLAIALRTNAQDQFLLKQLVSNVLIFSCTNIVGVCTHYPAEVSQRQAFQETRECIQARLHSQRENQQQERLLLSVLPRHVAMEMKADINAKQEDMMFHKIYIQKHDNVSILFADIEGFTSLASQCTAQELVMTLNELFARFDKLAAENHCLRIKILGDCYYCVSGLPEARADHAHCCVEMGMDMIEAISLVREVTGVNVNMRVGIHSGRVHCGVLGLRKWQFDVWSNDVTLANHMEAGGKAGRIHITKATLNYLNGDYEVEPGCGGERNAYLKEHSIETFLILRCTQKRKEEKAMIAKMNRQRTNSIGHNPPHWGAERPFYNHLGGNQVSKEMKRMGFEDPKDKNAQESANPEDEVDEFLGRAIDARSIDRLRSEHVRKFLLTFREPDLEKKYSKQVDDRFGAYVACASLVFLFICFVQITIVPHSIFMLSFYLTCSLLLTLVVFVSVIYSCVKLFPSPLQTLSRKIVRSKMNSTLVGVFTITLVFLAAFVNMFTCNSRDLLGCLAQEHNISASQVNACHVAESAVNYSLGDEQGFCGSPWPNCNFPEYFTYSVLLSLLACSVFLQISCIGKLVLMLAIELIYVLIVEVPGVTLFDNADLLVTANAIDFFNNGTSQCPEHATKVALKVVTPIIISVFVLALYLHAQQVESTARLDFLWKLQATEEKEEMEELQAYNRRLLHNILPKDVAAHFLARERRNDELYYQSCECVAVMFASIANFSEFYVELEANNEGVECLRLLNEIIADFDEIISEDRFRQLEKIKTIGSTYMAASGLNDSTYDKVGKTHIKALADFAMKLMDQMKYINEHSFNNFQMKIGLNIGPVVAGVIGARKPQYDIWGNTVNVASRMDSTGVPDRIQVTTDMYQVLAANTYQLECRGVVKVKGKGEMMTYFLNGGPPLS

D(1A) dopamine receptor [2] = biological target: D(1A) dopamine receptor (Rattus norvegicus, UniProt P18901); experiment: Binding affinity against Dopamine receptor D1 in rat radioligand
Sequence of D(1A) dopamine receptor (Rattus norvegicus, UniProt P18901) (P18901 whole entry): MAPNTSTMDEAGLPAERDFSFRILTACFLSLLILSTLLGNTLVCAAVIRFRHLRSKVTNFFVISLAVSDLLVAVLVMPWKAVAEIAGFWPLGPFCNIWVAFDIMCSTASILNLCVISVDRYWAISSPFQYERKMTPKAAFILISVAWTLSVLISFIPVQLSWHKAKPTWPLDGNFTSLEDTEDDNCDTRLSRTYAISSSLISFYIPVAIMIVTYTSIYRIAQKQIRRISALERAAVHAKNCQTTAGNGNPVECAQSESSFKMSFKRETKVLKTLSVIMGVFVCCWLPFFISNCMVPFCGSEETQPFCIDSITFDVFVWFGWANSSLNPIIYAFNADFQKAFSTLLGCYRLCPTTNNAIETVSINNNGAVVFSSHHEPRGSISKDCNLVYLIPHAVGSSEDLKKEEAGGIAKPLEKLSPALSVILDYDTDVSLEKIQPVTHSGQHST

Adenylate cyclase type 5 [3] = biological target: T1, Adenylate cyclase type 5; experiment: Effective concentration required to stimulate Adenylate cyclase
Target sequence in this assay (O95622 whole entry, looked up): as the sequence (O95622 whole entry, looked up) above

Adenylate cyclase type 5 [4] = biological target: T1, Adenylate cyclase type 5; experiment: Effective concentration required to stimulate Adenylate cyclase; Inactive
Target sequence in this assay (O95622 whole entry): as the sequence (O95622 whole entry, looked up) above

D(1A) dopamine receptor [5] = biological target: T2, D(1A) dopamine receptor (Homo sapiens, UniProt P21728); experiment: Binding affinity to displace [3H]- SCH 23390 against Dopamine receptor D1
T2 sequence (P21728 whole entry): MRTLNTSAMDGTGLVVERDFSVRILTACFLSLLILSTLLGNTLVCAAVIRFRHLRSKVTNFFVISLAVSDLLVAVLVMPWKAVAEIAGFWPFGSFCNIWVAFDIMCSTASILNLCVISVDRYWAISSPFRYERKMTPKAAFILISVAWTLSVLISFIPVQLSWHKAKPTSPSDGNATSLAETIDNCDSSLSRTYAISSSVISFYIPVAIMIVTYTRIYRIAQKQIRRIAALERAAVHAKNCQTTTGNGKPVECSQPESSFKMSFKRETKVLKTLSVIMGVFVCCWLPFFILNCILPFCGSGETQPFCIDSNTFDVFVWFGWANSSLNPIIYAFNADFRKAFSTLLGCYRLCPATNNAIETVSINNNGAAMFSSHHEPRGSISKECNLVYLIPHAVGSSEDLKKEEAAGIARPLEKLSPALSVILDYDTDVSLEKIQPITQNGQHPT

D(1A) dopamine receptor [6] = biological target: T2, D(1A) dopamine receptor; experiment: Binding affinity to displace [3H]-SCH- 23390 against Dopamine receptor D1

Oc1cc2c3c(c1O)CC[C@@H]3CNC[C@@H]2c1ccccc1
ED50 (Adenylate cyclase type 5 [1]): 430 nM
pKi (D(1A) dopamine receptor [2]): 7.62

Cc1cccc([C@H]2CNCCc3cc(O)c(O)cc32)c1
Response (Adenylate cyclase type 5 [3]): 71%

Cc1c(O)c(O)cc2c1[C@@H](c1ccccc1)CNCC2
EC50 (Adenylate cyclase type 5 [4]): Not Active

Cc1ccc([C@H]2CN(C)CCc3cc(Cl)c(O)cc32)cc1
pKi (D(1A) dopamine receptor [5]): 8.80

CN1CCc2cc(Cl)c(O)cc2[C@H]2c3ccccc3C[C@@H]21
pKi (D(1A) dopamine receptor [5]): 8.15

Oc1cc2c3c(c1O)CC[C@H]3CNC[C@@H]2c1ccccc1
Control (Adenylate cyclase type 5 [1]): 20%
pKi (D(1A) dopamine receptor [2]): 5.91

CN1CCc2cc(Cl)c(O)cc2[C@@H](c2cccc3ccoc23)C1
pKi (D(1A) dopamine receptor [6]): 8.22

Cc1ccccc1[C@H]1CN(C)CCc2cc(Cl)c(O)cc21
pKi (D(1A) dopamine receptor [5]): 9.10

Cc1ccccc1[C@H]1CNCCc2cc(O)c(O)cc21
EC50 (Adenylate cyclase type 5 [4]): Not Active

Oc1cc2c(cc1O)[C@@H](c1ccccc1)CNCC2
ED50 (Adenylate cyclase type 5 [1]): 63 nM

Cc1cccc([C@H]2CN(C)CCc3cc(Cl)c(O)cc32)c1
pKi (D(1A) dopamine receptor [5]): 9.40
